Where a name gives a salt, the structure may show the parent alone. Read-outs that look alike come from different tables or passages of the source.
How the values were obtained:
human FLAP = human FLAP (Homo sapiens (Human), UniProt P20292); assay: FLAP binding assay (HTRF format)
Method: (§1) The ability of the compounds of the present invention to treat a FLAP-mediated disease and/or disorder, or associated symptoms or complications thereof, was determined using the following procedures. Binding assay data represent the average value obtained from two different assay plates, with samples run in duplicate on each plate. Human whole blood assay data represent a single replicate on an assay plate using whole blood from at least one healthy donor.
Data are expressed as a HTRF ratio.

[1] = system: leukotriene pathway in human whole blood; assay: Human whole blood assay (LTB4 levels after A23187 stimulation); assay type: cell-based
Method: as §1
An in vitro cellular assay was performed using human whole blood collected in heparin-containing tubes, which was used to test the ability of compounds to modulate the leukotriene pathway in human whole blood. The blood was diluted 1:1 in RPMI medium, pre-incubated for 15 min at 37° Celsius with test compounds at various concentrations, and then stimulated with calcium ionophore, A23187 (7 μg/mL), for 30 min at 37° Celsius. The samples were then centrifuged and plasma was removed. The plasma was diluted in assay buffer and LTB4 levels were measured using a commercial kit (Enzo Life Sciences). The concentration of each compound that was required for half-maximal inhibition (modulation) of recombinant enzyme activity (IC50) was calculated by a 4-parameter equation using the program GraphPad Prism (GraphPad software).

[2] = human FLAP wild type membranes, HTRF format, Table 6 (additional runs)
[3] = human whole blood diluted 1:1 in RPMI, A23187 stimulation, Table 6 (additional runs)
[4] = human FLAP-containing membranes, HTRF ligand 25 nM, 2 h, average of two plates, duplicates, read-out: FLAP Binding wild type HTRF Ki
[5] = Homo sapiens, blood diluted 1:1 in RPMI, 15 min pre-incubation, A23187 7 μg/mL for 30 min at 37° Celsius, plasma LTB4

Sequence of human FLAP (P20292 whole entry): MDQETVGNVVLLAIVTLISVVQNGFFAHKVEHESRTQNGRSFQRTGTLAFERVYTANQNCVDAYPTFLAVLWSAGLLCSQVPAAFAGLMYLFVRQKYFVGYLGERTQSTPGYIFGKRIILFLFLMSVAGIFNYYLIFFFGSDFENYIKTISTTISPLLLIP

| Compound | Ki (human FLAP; [2]) [nM] | IC50 [1, 3] [nM] | Ki (human FLAP; [4]) [nM] | IC50 [1, 5] [nM] | IC50 ([1]; blood diluted 1:1 in RPMI, 15 min pre-incubation, A23187 7 μg/mL for 30 min at 37° Celsius, plasma LTB4) [nM] |
| --- | --- | --- | --- | --- | --- |
| 6-Cyclobutyl-2-fluoro-3-(5H-pyrrolo[2,3-b]pyrazin-2-yl)phenol [Example 176] | ~75 | 1300 |  |  | 892 |
| Nc1cnc(-c2ccc(C3CCC3)c(OCc3cccc(C(F)(F)F)c3)c2F)cn1 [Compound 2, 5-(4-Cyclobutyl-2-fluoro-3-{[3-(trifluoromethyl)benzyl]oxy}phenyl)pyrazin-2-amine] | 86.1 | 895 |  |  |  |
| Fc1c(-c2cnc3[nH]ccc3n2)ccc(C2CCC2)c1OCc1ccccc1 [Example 178, 2-[3-(Benzyloxy)-4-cyclobutyl-2-fluorophenyl]-5H-pyrrolo[2.3-b]pyrazine] |  | 771 | 354 |  |  |
| CC(C)(C)c1ccc(-c2cnc(N)nc2)c(F)c1Oc1ncccn1 [Example 207, 5-[4-tert-Butyl-2-fluoro-3-(pyrimidin-2-yloxy)phenyl]pyrimidin-2-amine] | 51.5 | 78 |  |  |  |
| N#Cc1cccnc1COc1c(C2CCC2)ccc(-c2cnc(N)cn2)c1F [Example 286, 2-{[3-(5-Aminopyrazin-2-yl)-6-cyclobutyl-2-fluorophenoxy]methyl)}pyridine-3-carbonitrile trifluoroacetic acid salt] | 81.7 | 1190 |  |  |  |
| Cc1nc(COc2c(C3CCC3)ccc(-c3cnc(N)cn3)c2F)cs1 [Example 287, 5-{4-Cyclobutyl-2-fluoro-3-[(2-methyl-1,3-thiazol-4-yl)methoxy]phenyl}pyrazin-2-amine trifluoroacetic acid salt] | 17.6 | > 1000 |  |  |  |
| Cc1ccc(-c2cnc(N)cn2)c(F)c1Oc1ncccn1 [Example 314, 5-[2-Fluoro-4-methyl-3-(pyrimidin-2-yloxy)phenyl]pyrazin-2-amine] |  | > 10000 |  |  |  |
| Nc1ncc(-c2ccc(C3CCCC3)c(Oc3ncccn3)c2F)cn1 [Example 334, 5-[4-Cyclopentyl-2-fluoro-3-(pyrimidin-2-yloxy)phenyl]pyrimidin-2-amine] | 4.6 | 52.7 |  |  |  |
| Nc1cnc(-c2ccc(C3CCC3)c(Oc3ccc(N)nn3)c2F)cn1 [Example 338, 6-[3-(5-Aminopyrazin-2-yl)-6-cyclobutyl-2-fluorophenoxy]pyridazin-3-amine] | 1.7 | 95.9 |  |  |  |
| Nc1cnc(-c2ccc(CC3CCCCC3)c(O)c2F)cn1 [Example 346, 3-(5-Aminopyrazin-2-yl)-6-(cyclohexylmethyl)-2-fluorophenol] | 45.3 | 176 |  |  |  |
| Nc1cnc(-c2ccc(C3CCC3)c(Oc3ccnc(N)c3)c2F)cn1 [Example 347, 5-{3-[(2-Aminopyridin-4-yl)oxy]-4-cyclobutyl-2-fluorophenyl}pyrazin-2-amine] | 47.6 | 396 |  |  |  |
| Nc1cnc(-c2ccc(C3CCC3)c(Oc3cncc(N)n3)c2F)cn1 [Example 348, 5-{3-[(6-Aminopyrazin-2-yl)oxy]-4-cyclobutyl-2-fluorophenyl}pyrazin-2-amine] | 13.1 | 147 |  |  |  |
| Nc1cnc(-c2ccc(C3CCC3)c(Oc3cncnc3)c2F)cn1 [Example 349, 5-[4-Cyclobutyl-2-fluoro-3-(pyrimidin-5-yloxy)phenyl]pyrazin-2-amine] | 31 | > 1000 |  |  |  |
| Nc1cnnc(Oc2c(C3CCC3)ccc(-c3cnc(N)cn3)c2F)c1 [Example 350, 6-[3-(5-Aminopyrazin-2-yl)-6-cyclobutyl-2-fluorophenoxy]pyridazin-4-amine] | 52.9 | 449 |  |  |  |
| CC(C)(C)c1ccc(-c2cnc3[nH]ccc3c2)c(F)c1Oc1ncccn1 [Example 351, 5-[4-tert-Butyl-2-fluoro-3-(pyrimidin-2-yloxy)phenyl]-1H-pyrrolo[2.3-b]pyridine] | 54.4 | 124 |  |  |  |
| Nc1ncc(-c2ccc(C3CCC3)c(O)c2F)cn1 [Intermediate E, 3-(2-Aminopyrimidin-5-yl)-6-cyclobutyl-2-fluorophenol] | 99.5 | 1100 |  | 1100 |  |

Continued, in another order:

| Ki (human FLAP; [2]) [nM] | IC50 [1, 3] [nM] | Ki (human FLAP; [4]) [nM] | IC50 [1, 5] [nM] | Compound | IC50 ([1]; blood diluted 1:1 in RPMI, 15 min pre-incubation, A23187 7 μg/mL for 30 min at 37° Celsius, plasma LTB4) [nM] |
| --- | --- | --- | --- | --- | --- |
| 3.9 | 56.6 |  |  | Nc1cnc(-c2ccc(C3CCC3)c(Oc3cc(N)ncn3)c2F)cn1 [Example 136, 6-[3-(5-Aminopyrazin-2-yl)-6-cyclobutyl-2-fluorophenoxy]pyrimidin-4-amine] |  |
| 23.2 | 287 |  |  | Fc1c(-c2cnc3c(c2)OCCN3)ccc(C2CCC2)c1Oc1ncccn1 [Example 225, 7-(4-Cyclobutyl-2-fluoro-3-(pyrimidin-2-yloxy)phenyl)-3,4-dihydro-2H-pyrido[3,2-b][1,4]oxazine] |  |
|  | 212 |  |  | Nc1cnc(-c2ccc(C3CCC3)c(OCCNc3ccncn3)c2F)cn1 [Example 297, N-{2-[3-(5-Aminopyrazin-2-yl)-6-cyclobutyl-2-fluorophenoxy]ethyl}pyrimidin-4-amine] |  |
| 3.6 | 36.9 |  |  | Nc1ccnc(Oc2c(C3CCCC3)ccc(-c3cnc(N)nc3)c2F)n1 [Example 335, 5-{3-[(4-Aminopyrimidin-2-yl)oxy]-4-cyclopentyl-2-fluorophenyl}pyrimidin-2-amine] |  |
| 3.9 | 23.8 |  |  | Nc1cnc(-c2ccc(C3CCCC3)c(Oc3nccc(N)n3)c2F)cn1 [Example 336, 2-[3-(5-Aminopyrazin-2-yl)-6-cyclopentyl-2-fluorophenoxy]pyrimidin-4-amine] |  |
| 14.8 | 162 |  |  | Nc1cnc(-c2ccc(C3CCCC3)c(Oc3ncccn3)c2F)cn1 [Example 337, 5-[4-Cyclopentyl-2-fluoro-3-(pyrimidin-2-yloxy)phenyl]pyrazin-2-amine] |  |
| 108 | 1640 |  |  | Nc1cnc(-c2ccc(C3CCC3)c(OCc3ncccn3)c2F)cn1 [Example 339, 5-[4-Cyclobutyl-2-fluoro-3-(pyrimidin-2-ylmethoxy)phenyl]pyrazin-2-amine] |  |
| 22.6 | 124 |  |  | Nc1cnc(-c2ccc(C3CCC3)c(OCc3ccc(-c4cnc(N)nc4)cc3)c2F)cn1 [Example 341, 5-(4-{[3-(5-Aminopyrazin-2-yl)-6-cyclobutyl-2-fluorophenoxy]methyl}phenyl)pyrimidin-2-amine] |  |
| 8.1 | 26.3 |  |  | Nc1cnc(-c2ccc(C3CCC3)c(OCc3ccc(-c4ccc(C(F)(F)F)cc4)cc3)c2F)cn1 [Example 342, 5-(4-Cyclobutyl-2-fluor-3-{[4-(trifluoromethyl)biphenyl-4-yl]methoxy}phenyl)pyrazin-2-amine] |  |
| 5.4 | 14.4 |  |  | Nc1ncc(-c2ccc(C3CCCCC3)c(Oc3ncccn3)c2F)cn1 [Example 343, 5-[4-Cyclohexyl-2-fluoro-3-(pyrimidin-2-yloxy)phenyl]pyrimidin-2-amine] |  |
| 14.2 | 15.1 |  |  | Nc1cnc(-c2ccc(C3CCCCC3)c(O)c2F)cn1 [Example 345, 3-(5-Aminopyrazin-2-yl)-6-cyclohexyl-2-fluorophenol] |  |
|  | 575 | 77.9 | 575 | CC(C)(C)c1ccc(-c2cnc(N)cn2)c(F)c1O [Intermediate G, 3-(5-Aminopyrazin-2-yl)-6-tert-butyl-2-fluorophenol] |  |
|  | 287 | 72.3 | 287 | CC(C)(C)c1ccc(-c2cnc(N)nc2)c(F)c1O [Intermediate H, 3-(2-Aminopyrimidin-5-yl)-6-tert-butyl-2-fluorophenol] |  |
